# Measurements taken from BindingDB's records for doi:10.1080/14756360802323720 (National University of Mexico City, 2009).
# Molecular target: T1, 3-oxo-5-alpha-steroid 4-dehydrogenase 2 (Homo sapiens, UniProt P31213)
# T1 sequence (P31213 whole entry): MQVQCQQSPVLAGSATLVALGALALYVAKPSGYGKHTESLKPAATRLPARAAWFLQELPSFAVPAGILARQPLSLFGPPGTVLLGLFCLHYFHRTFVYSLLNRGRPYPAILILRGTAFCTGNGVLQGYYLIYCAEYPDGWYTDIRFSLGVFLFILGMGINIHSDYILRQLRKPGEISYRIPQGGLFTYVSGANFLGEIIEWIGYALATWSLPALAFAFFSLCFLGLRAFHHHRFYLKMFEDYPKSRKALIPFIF
# Test: 5Alpha-Reductase Activity Assay
# Conditions: pH 6.5; 37 °C
# Description: The IC50 values for the synthesized steroids with human prostate 5alpha-reductase enzyme.
row,SMILES,IC50 [nM]
1,"CC(C)(C)NC(=O)[C@H]1CCC2C3CCC4NC(=O)C=C[C@]4(C)C3CC[C@@]21C (stereo not given in full) [Finasteride, 3]",8.5
2,"CC(=O)[C@@]1(OC(=O)c2ccccc2)CCC2C3CC[C@@]45O[C@@H]4C(=O)CC[C@]5(C)C3CC[C@@]21C (stereo not given in full) [Steroid, 10a]",13
3,"CC(=O)[C@@]1(OC(=O)c2ccc(Br)cc2)CCC2C3CC[C@@]45O[C@@H]4C(=O)CC[C@]5(C)C3CC[C@@]21C (stereo not given in full) [Steroid, 10b]",4.9

# More lines, now with the values ahead:
row,IC50 [nM],SMILES
1,360,"CC(=O)[C@@]1(OC(=O)c2ccccc2)CCC2C3CCC4=CC(=O)CC[C@]4(C)C3CC[C@@]21C (stereo not given in full) [Steroid, 9a]"
2,370,"CC(=O)[C@@]1(OC(=O)c2ccc(Br)cc2)CCC2C3CCC4=CC(=O)CC[C@]4(C)C3CC[C@@]21C (stereo not given in full) [Steroid, 9b]"
